Key:
blackgrass = assay: Test B pre/postemergence blackgrass; format: in vivo, Alopecurus myosuroides
Method in brief: (§1)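 Herbicidal effect was estimated by eye on a ten-point control scale after plants spent twelve to sixteen days in a greenhouse following soil or foliar treatment. Foliar sprays targeted plants at one to four leaves; all doses were formulated in a non-phytotoxic solvent with surfactant.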

cocklebur = assay: Test B pre/postemergence cocklebur; format: in vivo, Xanthium strumarium; details: for Cocklebur plant response rating: scale of 0 to 10 where 0 is no effect and 10 is complete control
Method in brief: as §1

corn = assay: Test B pre/postemergence corn; format: in vivo, Zea mays; details: for Corn plant response rating: scale of 0 to 10 where 0 is no effect and 10 is complete control
Method in brief: as §1

crabgrass = assay: Test B pre/postemergence crabgrass; format: in vivo, Digitaria sanguinalis; details: for Crabgrass plant response rating: scale of 0 to 10 where 0 is no effect and 10 is complete control
Method in brief: as §1

giant foxtail = assay: Test B pre/postemergence giant foxtail; format: in vivo, Setaria faberii; details: for Giant foxtail plant response rating: scale of 0 to 10 where 0 is no effect and 10 is complete control
Method in brief: as §1

morningglory = assay: Test B pre/postemergence morningglory; format: in vivo, Ipomoea hederacea; details: for Morningglory plant response rating: scale of 0 to 10 where 0 is no effect and 10 is complete control
Method in brief: as §1

pigweed = assay: Test B pre/postemergence pigweed; format: in vivo, Amaranthus retroflexus; details: for Redroot pigweed plant response rating: scale of 0 to 10 where 0 is no effect and 10 is complete control
Method in brief: as §1

rape = assay: Test B pre/postemergence rape; format: in vivo, Brassica napus; details: for Rape plant response rating: scale of 0 to 10 where 0 is no effect and 10 is complete control
Method in brief: as §1

soybean = assay: Test B pre/postemergence soybean; format: in vivo, Glycine max; details: for Soybean plant response rating: scale of 0 to 10 where 0 is no effect and 10 is complete control
Method in brief: as §1

sugar beet = assay: Test B pre/postemergence sugar beet; format: in vivo, Beta vulgaris; details: for Sugarbeets plant response rating: scale of 0 to 10 where 0 is no effect and 10 is complete control
Method in brief: as §1

velvetleaf = assay: Test B pre/postemergence velvetleaf; format: in vivo, Abutilon theophrasti; details: for Velvetleaf plant response rating: scale of 0 to 10 where 0 is no effect and 10 is complete control
Method in brief: as §1

wheat = assay: Test B pre/postemergence wheat; format: in vivo, Triticum aestivum; details: for Wheat plant response rating: scale of 0 to 10 where 0 is no effect and 10 is complete control
Method in brief: as §1

purple nutsedge = assay: Test B pre/postemergence purple nutsedge; format: in vivo, Cyperus rotundus; details: for Nutsedge plant response rating: scale of 0 to 10 where 0 is no effect and 10 is complete control
Method in brief: as §1

rice = assay: Test B flood test rice; format: in vivo, Oryza sativa
Method in brief: (§2)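 Plants were grown to the 2-leaf stage before treatment with test chemical, then held in a greenhouse for twelve to sixteen days. Injury was visually rated against untreated controls on a 0–10 scale, where 0 is no effect and 10 is complete control.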

smallflower flatsedge = assay: Test B flood test smallflower flatsedge; format: in vivo, Cyperus difformis
Method in brief: as §2

duck salad = assay: Test B flood test duck salad; format: in vivo, Heteranthera limosa
Method in brief: as §2

[1] = Postemergence, Rate 125 g/ha, scale 0 to 10, 0 is no effect, 10 is complete control
[2] = Preemergence, Rate 62 g/ha, scale 0 to 10 (0 no effect, 10 complete control)
[3] = Rate 500 g/ha, Postemergence, scale 0 to 10, 0 no effect, 10 complete control
[4] = Postemergence (flood test), Rate 125 g/ha, scale 0 to 10, 0 is no effect, 10 is complete control
[5] = Rate 62 g/ha, Postemergence (flood test species), scale of 0 to 10 where 0 is no effect and 10 is complete control
[6] = Rate 500 g/ha, listed under Postemergence (flood test species), scale 0 to 10, 0 no effect, 10 complete control

Cc1cccc(C(C)(C)C)c1-n1c(=O)on(C(=O)N(c2ccc(F)cc2)C(C)C)c1=O [Compound 359]
0: Plant response rating, Blackgrass (blackgrass; [1]) | Plant response rating, Blackgrass (blackgrass; [2]) | Blackgrass plant response rating (0 to 10 scale) (blackgrass; Preemergence, Rate 125 g/ha) | Blackgrass plant response rating (blackgrass; Preemergence, Rate 250 g/ha, scale of 0 to 10 where 0 is no effect and 10 is complete control) | Blackgrass plant response rating (blackgrass; Preemergence, Rate 500 g/ha, scale of 0 to 10 where 0 is no effect and 10 is complete control) | Blackgrass plant response rating (blackgrass; Rate 62 g/ha, Postemergence, scale of 0 to 10 where 0 is no effect and 10 is complete control) | Plant response rating, Blackgrass (blackgrass; Rate 250 g/ha, Postemergence, scale of 0 to 10 where 0 is no effect and 10 is complete control) | Plant response rating, Cocklebur (cocklebur; [1]) | Plant response rating, Cocklebur (cocklebur; [2]) | Cocklebur plant response rating (0 to 10 scale) (cocklebur; Preemergence, Rate 125 g/ha) | Cocklebur plant response rating (cocklebur; Preemergence, Rate 500 g/ha) | Cocklebur plant response rating (cocklebur; Rate 62 g/ha, Postemergence) | Plant response rating, Corn (corn; [1]) | Plant response rating, Corn (corn; [2]) | Corn plant response rating (0 to 10 scale) (corn; Preemergence, Rate 125 g/ha) | Corn plant response rating (corn; Preemergence, Rate 250 g/ha) | Corn plant response rating (corn; Preemergence, Rate 500 g/ha) | Corn plant response rating (corn; Rate 62 g/ha, Postemergence) | Plant response rating, Corn (corn; [3]) | Plant response rating, Crabgrass (crabgrass; [1]) | Plant response rating, Crabgrass (crabgrass; [2]) | Crabgrass plant response rating (0 to 10 scale) (crabgrass; Preemergence, Rate 125 g/ha) | Crabgrass plant response rating (crabgrass; Preemergence, Rate 250 g/ha) | Crabgrass plant response rating (crabgrass; Preemergence, Rate 500 g/ha) | Crabgrass plant response rating (crabgrass; Rate 62 g/ha, Postemergence) | Plant response rating, Crabgrass (crabgrass; [3]) | Plant response rating, Giant foxtail (giant foxtail; [1]) | Plant response rating, Giant foxtail (giant foxtail; [2]) | Giant foxtail plant response rating (0 to 10 scale) (giant foxtail; Preemergence, Rate 125 g/ha) | Giant foxtail plant response rating (giant foxtail; Preemergence, Rate 250 g/ha) | Giant foxtail plant response rating (giant foxtail; Preemergence, Rate 500 g/ha) | Giant foxtail plant response rating (giant foxtail; Rate 62 g/ha, Postemergence) | Plant response rating, Giant foxtail (giant foxtail; [3]) | Plant response rating, Morningglory (morningglory; [1]) | Plant response rating, Morningglory (morningglory; [2]) | Morningglory plant response rating (0 to 10 scale) (morningglory; Preemergence, Rate 125 g/ha) | Morningglory plant response rating (morningglory; Preemergence, Rate 250 g/ha) | Morningglory plant response rating (morningglory; Preemergence, Rate 500 g/ha) | Morningglory plant response rating (morningglory; Rate 62 g/ha, Postemergence) | Plant response rating, Morningglory (morningglory; [3]) | Plant response rating, Redroot pigweed (pigweed; [1]) | Plant response rating, Redroot pigweed (pigweed; [2]) | Redroot pigweed plant response rating (0 to 10 scale) (pigweed; Preemergence, Rate 125 g/ha) | Redroot pigweed plant response rating (pigweed; Preemergence, Rate 250 g/ha) | Redroot pigweed plant response rating (pigweed; Preemergence, Rate 500 g/ha) | Redroot pigweed plant response rating (pigweed; Rate 62 g/ha, Postemergence) | Plant response rating, Redroot pigweed (pigweed; [3]) | Plant response rating, Rape (rape; [1]) | Plant response rating, Rape (rape; [2]) | Rape plant response rating (0 to 10 scale) (rape; Preemergence, Rate 125 g/ha) | Rape plant response rating (rape; Preemergence, Rate 250 g/ha) | Rape plant response rating (rape; Preemergence, Rate 500 g/ha) | Rape plant response rating (rape; Rate 62 g/ha, Postemergence) | Plant response rating, Rape (rape; [3]) | Plant response rating, Soybean (soybean; [2]) | Soybean plant response rating (0 to 10 scale) (soybean; Preemergence, Rate 125 g/ha) | Soybean plant response rating (soybean; Preemergence, Rate 250 g/ha) | Soybean plant response rating (soybean; Preemergence, Rate 500 g/ha) | Soybean plant response rating (soybean; Rate 62 g/ha, Postemergence) | Plant response rating, Sugarbeets (sugar beet; [1]) | Plant response rating, Sugarbeets (sugar beet; [2]) | Sugarbeets plant response rating (0 to 10 scale) (sugar beet; Preemergence, Rate 125 g/ha) | Sugarbeets plant response rating (sugar beet; Preemergence, Rate 250 g/ha) | Sugarbeets plant response rating (sugar beet; Preemergence, Rate 500 g/ha) | Sugarbeets plant response rating (sugar beet; Rate 62 g/ha, Postemergence) | Plant response rating, Sugarbeets (sugar beet; [3]) | Plant response rating, Velvetleaf (velvetleaf; [1]) | Plant response rating, Velvetleaf (velvetleaf; [2]) | Velvetleaf plant response rating (0 to 10 scale) (velvetleaf; Preemergence, Rate 125 g/ha) | Velvetleaf plant response rating (velvetleaf; Preemergence, Rate 250 g/ha) | Velvetleaf plant response rating (velvetleaf; Preemergence, Rate 500 g/ha) | Velvetleaf plant response rating (velvetleaf; Rate 62 g/ha, Postemergence) | Plant response rating, Wheat (wheat; [1]) | Plant response rating, Wheat (wheat; [2]) | Wheat plant response rating (0 to 10 scale) (wheat; Preemergence, Rate 125 g/ha) | Wheat plant response rating (wheat; Preemergence, Rate 250 g/ha) | Wheat plant response rating (wheat; Preemergence, Rate 500 g/ha) | Wheat plant response rating (wheat; Rate 62 g/ha, Postemergence) | Plant response rating, Nutsedge (purple nutsedge; [1]) | Plant response rating, Nutsedge (purple nutsedge; [2]) | Nutsedge plant response rating (0 to 10 scale) (purple nutsedge; Preemergence, Rate 125 g/ha) | Nutsedge plant response rating (purple nutsedge; Preemergence, Rate 250 g/ha) | Nutsedge plant response rating (purple nutsedge; Preemergence, Rate 500 g/ha) | Nutsedge plant response rating (purple nutsedge; Rate 62 g/ha, Postemergence) | Plant response rating, Nutsedge (purple nutsedge; [3]) | Plant response rating, Rice (rice; [4]) | Rice plant response rating (rice; [5]) | Plant response rating, Rice (rice; [6]) | Plant response rating, S. Flatsedge (smallflower flatsedge; [4]) | S. Flatsedge plant response rating (smallflower flatsedge; [5]) | Plant response rating, S. Flatsedge (smallflower flatsedge; [6]) | Plant response rating, Ducksalad (duck salad; [4]) | Ducksalad plant response rating (duck salad; [5]) | Plant response rating, Ducksalad (duck salad; [6])
1: Plant response rating, Cocklebur (cocklebur; [3])
2: Plant response rating, Blackgrass (blackgrass; [3]) | Plant response rating, Soybean (soybean; [1]) | Plant response rating, Velvetleaf (velvetleaf; [3]) | Plant response rating, Wheat (wheat; [3])
3: Plant response rating, Soybean (soybean; [3])
